“And” between values parts separate entries of the source, which are not always exact repeats. Identical values can stand only once. Like-named read-outs stand apart in the source and are kept apart here.

For one data set, the system named is skin fibroblasts. As to the kind of experiment: Cytotoxicity in skin fibroblasts (plaque assay). In kind it is cell-based. The settings on record: ADV plaque formation assay. How it is done: (§1) Plaque formation assays. Plaque assays were used to examine the activity of the compounds against non-HIV viruses. The skin fibroblast cell line SF (ATCC CRL-2097) was used as a target for AD169, Adenovirus Type 5. […] cell line (ATCC CCL-81) was used as a target for HSV HF and G. The HEP-2 cell line (ATCC CCL-23) was used as a target for the RSV strain Long. These cell lines were cultured at 1×10^5 cells/well in 24-well (all but ECHO 30-infected SF) or 6-well (ECHO 30-infected SF) tissue culture plates with 0.9% methylcellulose or 0.4% SeaPlaque agarose semisolid support. Minimum Essential Medium (MEM) with Earle's salts (Gibco), L-glutamine, non-essential amino acids, 2% heat-inactivated fetal bovine serum, 1% penicillin/streptomycin, and 0.05% gentamicin served as the culture medium. The incubation times were 3 days for HF, G, ECHO 30, and Long; and 7 days for AD169 and Adenovirus Type 5. […] Percent inhibition of plaque formation was calculated by comparing the plaque numbers from the test substance-treated infected cells with the plaque numbers from untreated infected cells (i.e., virus controls). The IC50 values were determined using the Statview statistics program (SAS Institute, Inc., Cary, N.C.).

A further data set deals with HSV Type II strain G. As to the kind of experiment: HSV-2 plaque formation assay in VERO cells. In kind it is cell-based, herpes simplex virus Type II. The following applies: Human alphaherpesvirus 2, HSV-2, Strain G.
From the text: (§2) Virus stocks. The HIV-1 strain used in this study was HTLV-IIIB (Uckun et al., 1998 Antimicro. Agents and Chemother., 42:383-388). The non-HIV viruses included in the present study were the gancyclovir-sensitive cytomegalovirus (CMV) strain AD169 (ATCC VR-538); acyclovir-sensitive herpes simplex virus (HSV) Type I strain HF (ATCC VR-260); acyclovir-sensitive HSV Type II strain G (ATCC VR-734); adenovirus strain Type 5, strain adenoid 75 (ATCC VR-5); enterovirus strain, ECHO 30, strain Bastianni (ATCC VR-322); and respiratory syncytial virus (RSV), strain Long (ATCC VR-26).
as §1, with “support.” for “support. Minimum Essential Medium (MEM) with Earle's salts (Gibco), L-glutamine, non-essential amino acids, 2% heat-inactivated fetal bovine serum, 1% penicillin/streptomycin, and 0.05% gentamicin served as the culture medium. The incubation times were 3 days for HF, G, ECHO 30, and Long; and 7 days for AD169 and Adenovirus Type 5.”
(§3) Statistical analysis. […] An IC50 value was calculated from each set of triplicate wells using nonlinear regression modeling of the exponential form of the linearized equation (Statview, SAS Institute, Inc., Cary, N.C.). […]
(§4) The skin fibroblast cell line SF (ATCC CRL-2097) was used as a target for AD169, Adenovirus Type 5, and ECHO 30; the VERO cell line (ATCC CCL-81) was used as a target for HF and G; and the HEP-2 cell line (ATCC CCL-23) was used as target for the RSV strain Long. Results are expressed as the average IC50 values in μM. […]

Data set [1] relates to herpes simplex virus (HSV) Type I strain HF. As to the kind of experiment: HSV-1 plaque formation assay in VERO cells. The data set is classed as cell-based. The settings on record: Human alphaherpesvirus 1, HSV-1, Strain HF.
From the text: as §2
as §1, with “support.” for “support. Minimum Essential Medium (MEM) with Earle's salts (Gibco), L-glutamine, non-essential amino acids, 2% heat-inactivated fetal bovine serum, 1% penicillin/streptomycin, and 0.05% gentamicin served as the culture medium. The incubation times were 3 days for HF, G, ECHO 30, and Long; and 7 days for AD169 and Adenovirus Type 5.”
as §3, §4

The test system of data set [2] is adenovirus strain Type 5, strain adenoid 75. Nature of the data set: Adenovirus plaque formation assay in skin fibroblast cell line SF. In kind it is cell-based, human adenovirus.
From the text: as §2
Plaque formation assays. Plaque assays were used to examine the activity of the compounds against non-HIV viruses. The skin fibroblast cell line SF (ATCC CRL-2097) was used as a target for AD169, Adenovirus Type 5. […] cell line (ATCC CCL-81) was used as a target for HSV HF and G. The HEP-2 cell line (ATCC CCL-23) was used as a target for the RSV strain Long. These cell lines were cultured at 1×10^5 cells/well in 24-well (all but ECHO 30-infected SF) or 6-well (ECHO 30-infected SF) tissue culture plates with 0.9% methylcellulose or 0.4% SeaPlaque agarose semisolid support. Minimum Essential Medium (MEM) with Earle's salts (Gibco), L-glutamine, non-essential amino acids, 2% heat-inactivated fetal bovine serum, 1% penicillin/streptomycin, and 0.05% gentamicin served as the culture medium. The incubation times were 3 days for HF, G, ECHO 30, and Long; and 7 days for AD169 and Adenovirus Type 5. Plaque counting was performed with a 20X dissecting microscope for AD169, Type 5, ECHO 30, and RSV Long, and with a light box for HF and G. The fixative agent was crystal violet for all viruses, except for the CMV strain AD169 for which methylene blue was used. Percent inhibition of plaque formation was calculated by comparing the plaque numbers from the test substance-treated infected cells with the plaque numbers from untreated infected cells (i.e., virus controls). The IC50 values were determined using the Statview statistics program (SAS Institute, Inc., Cary, N.C.).
Statistical analysis. Each drug was tested at 6-7 different concentrations ranging from 0.0001 μM to 100 μM. Each assay was set up in triplicate wells and repeated 1-3 times. An IC50 value was calculated from each set of triplicate wells using nonlinear regression modeling of the exponential form of the linearized equation (Statview, SAS Institute, Inc., Cary, N.C.). […] The IC50 values obtained were correlated to the log transformed hydrolysis rate constants by fitting a linear model (JMP Software, SAS Institute Inc., Cary, N.C.). P-values less than 0.05 were deemed significant.
The skin fibroblast cell line SF (ATCC CRL-2097) was used as a target for AD169, Adenovirus Type 5, and ECHO 30; the VERO cell line (ATCC CCL-81) was used as a target for HF and G; and the HEP-2 cell line (ATCC CCL-23) was used as target for the RSV strain Long. Results are expressed as the average IC50 values in μM. Stavudine (STV) was included as a control.

The test system of data set [3] is cytomegalovirus (CMV) strain AD169. As to the kind of experiment: CMV plaque formation assay in SF cells. The data set is classed as cell-based. The settings on record: Human betaherpesvirus 5.
From the text: as §2
as §1, with “support.” for “support. Minimum Essential Medium (MEM) with Earle's salts (Gibco), L-glutamine, non-essential amino acids, 2% heat-inactivated fetal bovine serum, 1% penicillin/streptomycin, and 0.05% gentamicin served as the culture medium. The incubation times were 3 days for HF, G, ECHO 30, and Long; and 7 days for AD169 and Adenovirus Type 5.”
as §3, §4

For data set [4], the system named is respiratory syncytial virus (RSV), strain Long. As to the kind of experiment: RSV plaque formation assay in HEP-2 cells. The data set is classed as cell-based. The following applies: human respiratory syncytial virus, HEp-2.
From the text: as §2
as §1, with “support.” for “support. Minimum Essential Medium (MEM) with Earle's salts (Gibco), L-glutamine, non-essential amino acids, 2% heat-inactivated fetal bovine serum, 1% penicillin/streptomycin, and 0.05% gentamicin served as the culture medium. The incubation times were 3 days for HF, G, ECHO 30, and Long; and 7 days for AD169 and Adenovirus Type 5.”
as §3, §4

Data set [5] in a line: Hydrolysis rate in alkali conditions. The data set is classed as physicochemical. On the procedure:
Statistical analysis. Each drug was tested at 6-7 different concentrations ranging from 0.0001 μM to 100 μM. Each assay was set up in triplicate wells and repeated 1-3 times. An IC50 value was calculated from each set of triplicate wells using nonlinear regression modeling of the exponential form of the linearized equation (Statview, SAS Institute, Inc., Cary, N.C.). Hydrolysis rates were determined by fitting single exponential decay equations to the disappearance of the compound in alkali conditions (all R^2 values greater than 0.85). The IC50 values obtained were correlated to the log transformed hydrolysis rate constants by fitting a linear model (JMP Software, SAS Institute Inc., Cary, N.C.). P-values less than 0.05 were deemed significant.

The next data set in a line: Solubility. In kind it is physicochemical. The following applies: read-out: Solubility.
In the next data set the test system is HIV-1 strain HTLV-IIIB. As to the kind of experiment: In vitro anti-HIV-1 activity, p24 antigen assay in PBMNC. In kind it is cell-based. The settings on record: Human immunodeficiency virus 1, HIV-1, HTLV-IIIB, day 7.
From the text: as §2
In vitro assays of anti-HIV-1 activity. Normal human peripheral blood mononuclear cells (PBMNC) from HIV-negative donors were cultured 72 hours in RPMI 1640 supplemented with 20% (v/v) heat-inactivated fetal bovine serum (FBS), 3% interleukin-2, 2 mM L-glutamine, 25 mM HEPES, 2 g/L NaHCO3, 50 Tg/mL gentamicin, and 4 Tg/mL phytohemagglutinin prior to exposure to HIV-1 at a multiplicity of infection (MOI) of 0.1 during a 1 hour adsorption period at 37° C. in a humidified 5% CO2 atmosphere. Subsequently, cells were cultured in 96-well microtiter plates (100 TL, 2×10^6 cells/mL) in the presence of various concentrations of compounds 113 or 609. Aliquots of culture supernatants were removed from the wells on the seventh day after infection for p24 antigen assays, as previously described. […] Percent viral inhibition was calculated by comparing the p24 values from untreated infected cells (i.e., virus controls).
Statistical analysis. […] An IC50 value was calculated from each set of triplicate wells using nonlinear regression modeling of the exponential form of the linearized equation (Statview, SAS Institute, Inc., Cary, N.C.). Hydrolysis rates were determined by fitting single exponential decay equations to the disappearance of the compound in alkali conditions (all R^2 values greater than 0.85). […]

In data set [6] the test system is enterovirus strain, ECHO 30, strain Bastianni. As to the kind of experiment: Enterovirus plaque formation assay in SF cells. In kind it is cell-based.
From the text: as §2
as §1, with “support.” for “support. Minimum Essential Medium (MEM) with Earle's salts (Gibco), L-glutamine, non-essential amino acids, 2% heat-inactivated fetal bovine serum, 1% penicillin/streptomycin, and 0.05% gentamicin served as the culture medium. The incubation times were 3 days for HF, G, ECHO 30, and Long; and 7 days for AD169 and Adenovirus Type 5.”
as §3, §4

Data set [7] can be described thus: Octanol/water partition coefficient, shake flask method. The data set is classed as physicochemical. The following applies: 4 hours at room temperature, read-out: Oct/Water (log P). On the procedure: HPLC purification was achieved using a reverse-phase Lichrospher column (250×4 mm, Hewlett-Packard, RP-18, Cat. #79925) and an isocratic flow (1 ml/minute) consisting of water (70%) and acetonitrile (30%). Melting points were determined using a Melt John's apparatus and are uncorrected. Column chromatography was performed using silica gel obtained from Baker Company. The octanol/water partition coefficient was determined by the shake flask method. The phosphoramidate analogs were added to 2 ml of water and 2 ml of octanol in a glass vial. The mixture was shaken for 4 hours at room temperature. The two phases were carefully separated and filtered through a Millipore filter and analyzed by HPLC. The partition coefficient was calculated using the ratio of the area under the curve for octanol and water, respectively.

As for `COC(=O)C(C)NP(=O)(OCC1C=CC(n2cc(C)c(=O)[nH]c2=O)O1)Oc1ccc(Cl)cc1` (stereo not drawn) [Compound 609, 5′-[4-Chlorophenylmethoxyalaninyl phosphate]-2′, 3′-didehydro-3′-deoxy thymidine], the “cytotoxicity (in words)” value in the data set with skin fibroblasts is listed as “without cytotoxicity”. In addition, the IC50 (commonly the point on the concentration scale where inhibition reaches its midpoint) in the data set on HSV Type II strain G was greater than 100000 nM; in data set [1], greater than 100000 nM; in data set [2] (Adenovirus Type 5, 7 days, ± s.e., read-out: IC50, ADV-induced plaque formation), 26.7 nM and 27 nM; in data set [2] (read-out: IC50, ADV-induced plaque formation, Adenovirus Type 5, 7 days, ± s.e.) it was 2.7 ± 3 nM; in [3], greater than 100000 nM; in data set [4] it was greater than 100000 nM. The IC50 with HIV-1 strain HTLV-IIIB was 1 nM; in data set [6], greater than 100000 nM. In data set [5], the “Hydrolysis Rate” value was 0.0216 min⁻¹. Further, the Solubility (usually how much of the substance goes into solution per volume) in the data set “Solubility” amounted to 1400 µg/mL. For the same compound, the logP at 4 h in [7] came to 0.64.

Source of the values: US20030236218A1, “Aryl phosphate derivatives of d4T with selective activity against adenovirus and HIV” (priority 2002, published 2003).
